Experimental data reported in ChEMBL document CHEMBL4613209, “Quinolone hybrids and their anti-cancer activities: An overview” (Eur J Med Chem, 2019).

Tests used:
MCF7 [1] = assay: Cytotoxicity against human MCF7 cells assessed as reduction in cell viability after 48 hrs by MTT assay; format: functional, cell-based; details: MCF7, 48 h
T47D = assay: Cytotoxicity against human T47D cells assessed as reduction in cell viability after 48 hrs by MTT assay; format: functional, cell-based
MDA-MB-231 = assay: Cytotoxicity against human MDA-MB-231 cells assessed as reduction in cell viability after 48 hrs by MTT assay; format: functional, cell-based; details: MDA-MB-231, 48 h
MCF7 [2] = assay: Cytotoxicity against human MCF7 cells assessed as reduction in cell viability; format: functional, cell-based
A549 [3] = assay: Cytotoxicity against human A549 cells assessed as reduction in cell viability; format: functional, cell-based
[4] = target: RAC-alpha serine/threonine-protein kinase (Homo sapiens, UniProt P31749); assay: Inhibition of PKBalpha (unknown origin)
[5] = target: RAC-beta serine/threonine-protein kinase (Homo sapiens, UniProt P31751); assay: Inhibition of PKBbeta (unknown origin)
[6] = target: RAC-gamma serine/threonine-protein kinase (Homo sapiens, UniProt Q9Y243); assay: Inhibition of PKBgamma (unknown origin)
[7] = target: T1, Inhibitor of nuclear factor kappa-B kinase subunit alpha (Homo sapiens, UniProt O15111); assay: Inhibition of IKKalpha (unknown origin)
T1 sequence (O15111 whole entry): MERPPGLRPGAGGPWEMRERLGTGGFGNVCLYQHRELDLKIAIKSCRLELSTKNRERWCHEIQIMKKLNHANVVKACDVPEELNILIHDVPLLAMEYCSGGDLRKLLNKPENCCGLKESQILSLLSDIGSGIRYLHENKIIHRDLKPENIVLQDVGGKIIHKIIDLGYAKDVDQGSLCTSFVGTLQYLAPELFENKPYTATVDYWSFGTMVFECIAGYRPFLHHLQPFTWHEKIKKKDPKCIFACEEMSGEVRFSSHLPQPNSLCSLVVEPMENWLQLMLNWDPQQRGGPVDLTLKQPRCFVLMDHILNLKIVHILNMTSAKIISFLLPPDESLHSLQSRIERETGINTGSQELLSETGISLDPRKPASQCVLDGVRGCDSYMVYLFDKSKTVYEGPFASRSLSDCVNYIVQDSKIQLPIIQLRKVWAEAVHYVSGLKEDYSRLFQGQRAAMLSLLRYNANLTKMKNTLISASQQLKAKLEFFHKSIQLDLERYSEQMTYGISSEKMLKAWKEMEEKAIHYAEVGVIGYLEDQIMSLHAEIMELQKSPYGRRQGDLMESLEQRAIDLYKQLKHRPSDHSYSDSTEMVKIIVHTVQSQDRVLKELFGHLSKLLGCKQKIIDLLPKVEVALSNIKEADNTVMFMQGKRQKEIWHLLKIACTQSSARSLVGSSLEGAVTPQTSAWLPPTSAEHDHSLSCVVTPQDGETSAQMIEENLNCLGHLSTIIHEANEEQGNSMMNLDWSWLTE

[8] = target: T2, Inhibitor of nuclear factor kappa-B kinase subunit beta (Homo sapiens, UniProt O14920); assay: Inhibition of IKKbeta (unknown origin)
T2 sequence (O14920 whole entry): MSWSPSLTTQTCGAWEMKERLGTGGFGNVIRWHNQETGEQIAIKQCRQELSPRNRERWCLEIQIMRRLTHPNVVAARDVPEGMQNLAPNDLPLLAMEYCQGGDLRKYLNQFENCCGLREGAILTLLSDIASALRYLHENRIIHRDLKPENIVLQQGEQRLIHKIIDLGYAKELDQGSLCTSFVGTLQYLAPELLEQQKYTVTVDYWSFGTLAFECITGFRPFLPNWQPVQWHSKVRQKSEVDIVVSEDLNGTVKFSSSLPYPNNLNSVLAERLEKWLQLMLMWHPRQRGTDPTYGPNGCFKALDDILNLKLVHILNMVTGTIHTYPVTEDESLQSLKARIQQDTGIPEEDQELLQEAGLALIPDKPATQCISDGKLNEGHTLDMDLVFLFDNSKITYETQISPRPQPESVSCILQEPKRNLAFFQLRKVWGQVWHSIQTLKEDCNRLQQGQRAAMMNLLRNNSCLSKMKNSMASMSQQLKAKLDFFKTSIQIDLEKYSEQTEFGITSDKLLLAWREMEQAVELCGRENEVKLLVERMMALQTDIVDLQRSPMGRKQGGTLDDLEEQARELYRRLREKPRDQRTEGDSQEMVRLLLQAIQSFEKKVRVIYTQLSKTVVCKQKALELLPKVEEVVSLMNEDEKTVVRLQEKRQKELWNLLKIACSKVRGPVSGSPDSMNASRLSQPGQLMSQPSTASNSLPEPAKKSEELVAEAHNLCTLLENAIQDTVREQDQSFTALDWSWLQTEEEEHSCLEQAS

MCF7 [9] = assay: Cytotoxicity against human MCF7 cells assessed as reduction in cell viability after 72 hrs by MTT assay; format: functional, cell-based; details: MCF7, 72 h
ACHN = assay: Cytotoxicity against human ACHN cells assessed as reduction in cell viability after 72 hrs by MTT assay; format: functional, cell-based
A 172 = assay: Cytotoxicity against human A172 cells assessed as reduction in cell viability after 72 hrs by MTT assay; format: functional, cell-based; details: A 172, 72 h
SK-MEL3 = assay: Cytotoxicity against human SK-MEL-3 cells assessed as reduction in cell viability after 72 hrs by MTT assay; format: functional, cell-based; details: SK-MEL3, 72 h
KB = assay: Cytotoxicity against human KB cells assessed as reduction in cell viability after 72 hrs by MTT assay; format: functional, cell-based
A549 [10] = assay: Cytotoxicity against human A549 cells assessed as reduction in cell viability after 72 hrs by MTT assay; format: functional, cell-based; details: A549, 72 h
A2780 = assay: Cytotoxicity against human A2780 cells assessed as reduction in cell viability after 72 hrs by MTT assay; format: functional, cell-based; details: A2780, 72 h

Chain of RAC-gamma serine/threonine-protein kinase (Q9Y243 whole entry): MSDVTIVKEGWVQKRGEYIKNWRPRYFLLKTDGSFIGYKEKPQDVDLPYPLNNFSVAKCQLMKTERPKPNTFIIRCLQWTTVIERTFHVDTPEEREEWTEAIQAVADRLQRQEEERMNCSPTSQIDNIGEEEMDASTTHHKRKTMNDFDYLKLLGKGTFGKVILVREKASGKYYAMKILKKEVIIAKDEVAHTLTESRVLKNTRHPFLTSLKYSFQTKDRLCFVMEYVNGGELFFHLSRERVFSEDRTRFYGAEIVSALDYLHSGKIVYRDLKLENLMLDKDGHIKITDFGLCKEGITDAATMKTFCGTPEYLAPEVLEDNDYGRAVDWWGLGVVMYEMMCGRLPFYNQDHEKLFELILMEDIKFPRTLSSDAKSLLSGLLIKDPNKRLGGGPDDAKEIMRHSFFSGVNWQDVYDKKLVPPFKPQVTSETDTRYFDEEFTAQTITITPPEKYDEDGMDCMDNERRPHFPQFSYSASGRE
Chain of RAC-beta serine/threonine-protein kinase (P31751 whole entry): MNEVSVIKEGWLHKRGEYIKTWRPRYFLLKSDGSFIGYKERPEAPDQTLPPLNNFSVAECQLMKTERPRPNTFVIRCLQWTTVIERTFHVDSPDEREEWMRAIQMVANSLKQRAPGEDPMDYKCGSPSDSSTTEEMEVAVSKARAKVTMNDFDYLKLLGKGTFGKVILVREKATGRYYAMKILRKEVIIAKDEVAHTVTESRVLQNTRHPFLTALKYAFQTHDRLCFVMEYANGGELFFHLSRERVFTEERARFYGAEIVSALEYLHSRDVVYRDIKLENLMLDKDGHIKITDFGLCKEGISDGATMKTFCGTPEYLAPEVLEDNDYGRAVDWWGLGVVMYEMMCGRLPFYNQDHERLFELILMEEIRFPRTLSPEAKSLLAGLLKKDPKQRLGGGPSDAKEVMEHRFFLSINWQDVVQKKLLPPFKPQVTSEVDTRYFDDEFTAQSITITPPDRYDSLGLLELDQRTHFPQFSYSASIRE
Chain of RAC-alpha serine/threonine-protein kinase (P31749 whole entry): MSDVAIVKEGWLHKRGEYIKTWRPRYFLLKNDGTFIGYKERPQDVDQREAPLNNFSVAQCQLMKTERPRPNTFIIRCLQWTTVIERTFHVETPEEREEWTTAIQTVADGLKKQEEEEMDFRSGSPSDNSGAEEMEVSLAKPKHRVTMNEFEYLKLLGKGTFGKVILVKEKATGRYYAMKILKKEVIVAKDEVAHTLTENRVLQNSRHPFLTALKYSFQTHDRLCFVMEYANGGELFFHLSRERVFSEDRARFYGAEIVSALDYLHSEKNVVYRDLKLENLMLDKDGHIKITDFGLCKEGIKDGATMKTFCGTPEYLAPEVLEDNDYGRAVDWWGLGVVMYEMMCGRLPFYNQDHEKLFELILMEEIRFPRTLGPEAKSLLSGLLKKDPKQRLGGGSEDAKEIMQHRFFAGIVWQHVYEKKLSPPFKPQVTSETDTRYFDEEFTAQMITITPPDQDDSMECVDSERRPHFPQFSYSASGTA

IC50 [4] [µM] | IC50 [5] [µM] | IC50 [6] [µM] | IC50 [7] [µM] | IC50 [8] [µM] | SMILES | IC50 (MCF7 [9]) [µM] | IC50 (ACHN) [µM] | IC50 (A 172) [µM] | IC50 (SK-MEL3) [µM] | IC50 (KB) [µM] | IC50 (A549 [10]) [µM] | IC50 (A2780) [µM] | further results
– | – | – | – | – | COc1ccc2c(c1)c(=O)c1ccccc1n2Cc1cn(Cc2cc(OC)c(OC)c(OC)c2)nn1 | – | – | – | – | – | – | – | IC50 (MCF7 [1]): > 100 µM; IC50 (T47D): > 100 µM; IC50 (MDA-MB-231): > 100 µM
– | – | – | – | – | O=C(/C=C(O)/C=C/c1cc2ccccc2[nH]c1=O)/C=C/c1cc2ccccc2[nH]c1=O | – | – | – | – | – | – | – | IC50 (MCF7 [2]): 69.1 µM; IC50 (A549 [3]): 31.5 µM
1.64 to 44.5 | 1.64 to 44.5 | 1.64 to 44.5 | 1.64 to 44.5 | 1.64 to 44.5 | O=C(/C=C/c1nc2cc(F)c(F)cc2[nH]1)c1c(-c2ccc(F)cc2)c2cc(F)ccc2[nH]c1=O | – | – | – | – | – | – | – | –
1.64 to 44.5 | 1.64 to 44.5 | 1.64 to 44.5 | 1.64 to 44.5 | 1.64 to 44.5 | O=C(/C=C/c1nc2cc(F)c(F)cc2[nH]1)c1c(-c2ccc(F)cc2)c2cc(Cl)ccc2[nH]c1=O | – | – | – | – | – | – | – | –
1.64 to 44.5 | 1.64 to 44.5 | 1.64 to 44.5 | 1.64 to 44.5 | 1.64 to 44.5 | O=C(/C=C/c1nc2ccccc2[nH]1)c1c(O)nc2ccc(Cl)cc2c1-c1ccccc1 | – | – | – | – | – | – | – | –
– | – | – | – | – | CCn1cc(C(=O)O)c(=O)c2cc(F)c(N3CCN(C/C(=N/OC)c4ccco4)CC3)cc21 | > 100 | > 100 | > 100 | > 100 | > 100 | > 100 | > 100 | –
1.64 to 44.5 | 1.64 to 44.5 | 1.64 to 44.5 | 1.64 to 44.5 | 1.64 to 44.5 | O=C(/C=C/c1nc2ccccc2[nH]1)c1c(-c2ccccc2)c2ccccc2[nH]c1=O | – | – | – | – | – | – | – | –
– | – | – | – | – | COc1cc(Cn2cc(Cn3c4ccccc4c(=O)c4cc(Br)ccc43)nn2)cc(OC)c1OC | – | – | – | – | – | – | – | IC50 (MCF7 [1]): > 100 µM; IC50 (T47D): > 100 µM; IC50 (MDA-MB-231): > 100 µM
– | – | – | – | – | O=C(O)c1cn(C2CC2)c2cc(N3CCN(C/C(=N/O)c4ccco4)CC3)c(F)cc2c1=O | > 100 | > 100 | > 100 | > 100 | > 100 | > 100 | > 100 | –
1.64 to 44.5 | 1.64 to 44.5 | 1.64 to 44.5 | 1.64 to 44.5 | 1.64 to 44.5 | O=C(/C=C/c1nc2cc(Br)ccc2[nH]1)c1c(-c2ccccc2)c2cc(Cl)ccc2[nH]c1=O | – | – | – | – | – | – | – | –
1.64 to 44.5 | 1.64 to 44.5 | 1.64 to 44.5 | 1.64 to 44.5 | 1.64 to 44.5 | O=C(/C=C/c1nc2cc(F)c(F)cc2[nH]1)c1c(-c2ccc(F)c(F)c2)c2cc(F)ccc2[nH]c1=O | – | – | – | – | – | – | – | –
– | – | – | – | – | O=C(O)c1cn(C2CC2)c2cc(N3CCN(C/C(=N/OCc4ccc(Cl)cc4)c4cccs4)CC3)c(F)cc2c1=O | ≤ 10 | ≤ 10 | ≤ 10 | ≤ 10 | ≤ 10 | ≤ 10 | ≤ 10 | –
– | – | – | – | – | COc1cc(Cn2cc(Cn3c4ccccc4c(=O)c4cccc(OC)c43)nn2)cc(OC)c1OC | – | – | – | – | – | – | – | IC50 (MCF7 [1]): > 100 µM; IC50 (T47D): > 100 µM; IC50 (MDA-MB-231): > 100 µM
– | – | – | – | – | CCn1cc(C(=O)O)c(=O)c2cc(F)c(N3CCN(C/C(=N/OCc4ccc(Cl)cc4)c4ccco4)CC3)cc21 | ≤ 10 | ≤ 10 | ≤ 10 | ≤ 10 | ≤ 10 | ≤ 10 | ≤ 10 | –
– | – | – | – | – | N=c1c(-c2nn3c(-c4cn(C5CC5)c5cc(N6CCNCC6)c(F)cc5c4=O)nnc3s2)cn(C2CC2)c2cc(N3CCNCC3)c(F)cc12 | ≤ 10 | ≤ 10 | ≤ 10 | ≤ 10 | ≤ 10 | ≤ 10 | ≤ 10 | –
